Assays:
[1] = tested on: woodchuck hepatitis virus (WHV); test: Woodchuck model, N-nonyl-DNJ monotherapy, total HBV DNA and immune precipitated HBV DNA (IPDNA); format: in vivo
Description: Therefore, five groups of four animals each (all groups had both sexes, all but the control had two of each sex) were assigned to 0, 12.5, 25, 50, and 100 mg/kg/day with BID oral dosing. These were lab-reared wild animals. All animals were infected with woodchuck hepatitis virus (WHV) as neonates, and had been tested positive on serological tests for WHV surface antigen. Blood samples were drawn one week prior to dosing (−1 week), immediately before dosing (0 weeks), weekly during dosing (1, 2, 3, and 4 weeks), and after the end of dosing (5, 6, 8, and 10 weeks).
There are two measures of drug efficacy: reduction in total HBV DNA (measured by quantitative PCR), and reduction in HBV DNA from capsids with intact surface glycoproteins, which is the active form of the virus (measured by an ELISA-like immune precipitation assay followed by quantitative PCR).
Before models are fitted to the data, a log transform was applied because: 1) the variation in IPDNA increases with increasing IPDNA values; the log transformation gives values with a nearly constant variation, and 2) it is expected that drug effects will appear as a constant multiplier of the IPDNA level. Because there are zero values of IPDNA, a small value (about ½ of the smallest non-zero value) was added to all values before the log transform.
Two approaches were used to model the changes in slope to week with dose of N-nonyl-DNJ: a linear modeling approach and a nonlinear model. Both approaches assume that the (linear) rate of change of the Log(IPDNA) measure over the dosing period is the “right” measure to reflect the effect of the drug on the virus. Both approaches are fit in stages, and the first stage is common to both approaches. First, a simple straight line regression model is fit using weeks 0-4 to predict log(IPDNA+10) separately for each animal by run combination. In the second stage, the response variable is the slope fitted in the first stage.
For the linear approach, a model is fit with slope to week as the response where run is considered a block, dose has a significant effect (almost all of this effect is due to a slope to dose), and the relevant error for testing the effect of dose is the variation among animals treated alike (after the adjustment for the runs as blocks). This is similar to using the calibration data within each run to first adjust each run's data to a common virus DNA concentration; the difference is that here the data from the woodchucks are used for the run adjustment rather than only the calibration data.
For the nonlinear approach, a four parameter logistic model is fit with the slope to week as the response and the dose as the predictor. Again, run is considered a block, but because no run has all weeks, it is not possible to fully reflect the blocking in the nonlinear approach. […] The average maximum slope observed was 2.71 additional Log(IPDNA μg/mL)/week, or an increase of about 150%/week, the average minimum slope observed with N-nonyl-DNJ is 0.31 fewer Log(IPDNA μg/mL)/week), or about a decrease of about 25%/week. The slopes, the fitted model, the parameter estimates from the model, and the approximate standard errors for these parameters are all shown in FIG. 3. […] Whether in woodchucks or humans, the effective dose of both the N-alkyl-DNJ and nucleoside or nucleotide antiviral agent administered in combination therewith can be administered in two equal daily subdoses (i.e., B.I.D.).

[2] = tested on: hepatitis B virus in HepG 2.2.15 (2.2.15) cells; test: IC-90 values used for the combostat method (earlier determinations); format: cell-based; details: HepG2.2.15, T. Block and G. Jacob, unpublished observation
Description: The anti-hepatitis B virus effect of (−)-2′-deoxy-3′-thiocytidine-5′-triphosphate (3TC) alone and in combination with N-nonyl-DNJ was determined according to Korba ((1996) Antiviral Research 29(1):49-51), using the “combostat” strategy (Comstat Program, Combostat Corp., Duluth, Minn.). The combostat method involves serially diluting the IC-90 of each compound. The IC-90 of N-nonyl-DNJ has been determined to be between 4 and 10 μg/ml (T. Block and G. Jacob, unpublished observation). The accepted IC-90 for 3TC in HepG 2.2.15 (2.2.15) cells is 300 nM to 500 nM (Doong et al. (1991) Proc. Natl. Acad. Sci. USA 88:8495-8499).

Hepatitis B Virus = test: Hepatitis B virus secretion from chronically HBV secreting HepG2.2.15 cells (preS1 immunoprecipitation / PCR); format: cell-based; details: 3 days of incubation, control = 100%
Description: The anti-hepatitis B virus activity and effect on cell viability of a number of different N-substituted-1,5-dideoxy-1,5-imino-D-glucitol compounds were assessed using an in vitro assay employing chronically hepatitis B virus secreting HepG2.2.15 cells. The method employed was essentially that described in Block et al. (1994) Proc. Natl. Acad. Sci. USA 91:2235-2239.

[3] = woodchuck, weeks 0-4, with N-nonyl-DNJ

SMILES | effect on total HBV DNA measurements ([1]; woodchuck, 12.5-100 mg/kg/day BID oral, 4 weeks of dosing) | EC50, four parameter logistic model of slope of Log(IPDNA+10) to week versus dose ([1]; woodchuck, oral BID) [mg/kg/BID dose] | increase of IPDNA at average maximum slope ([1]; woodchuck, weeks 0-4) | average maximum slope observed, additional Log(IPDNA)/week ([1]; woodchuck, weeks 0-4, upper end of fitted model) | average minimum slope observed, fewer Log(IPDNA)/week [1, 3] | decrease of IPDNA at average minimum slope [1, 3] | approximate effective monotherapy dose ([1]; woodchucks) | IC90 [2] [mg/L] | Relative amount of HBV secreted, as a % of control (Hepatitis B Virus; concentration [200]) | Relative amount of HBV secreted, as a % of control (Hepatitis B Virus; concentration [1000])
CCCCCCCCCN1C[C@H](O)[C@@H](O)[C@H](O)[C@H]1CO [Compound 1, N-(n-nonyl)-1,5-dideoxy-1,5-imino-D-glucitol] | no effect | 7.88 | about 150 %/week | 2.71 Log(IPDNA μg/mL)/week | 0.31 Log(IPDNA μg/mL)/week | about 25 %/week | about 16 mg/kg/day | 4 to 10 |  | 
CCCCN1C[C@H](O)[C@@H](O)[C@H](O)[C@H]1CO [NBDNJ, N-(n-butyl-)-1,5-dideoxy-1,5-imino-D-glucitol] |  |  |  |  |  |  |  |  | 37.0 +/− 13 (n = 15) % | 3.2 +/− 5 (n = 15) %
CCC(CC)CN1C[C@H](O)[C@@H](O)[C@H](O)[C@H]1CO [Compound 3, N-(2-ethylbutyl)-1,5-dideoxy-1,5-imino-D-glucitol] |  |  |  |  |  |  |  |  | 45.0 +/− 30 (n = 3) % | 5.0 +/− 20 (n = 3) %

From patent publication US20050119310A1, “Use of n-substituted-1,5-dideoxy-1,5-imino-d-glucitol compounds for treating hepatitis virus infections” (priority 2000, published 2005)
